Reference: patent publication US7629371B2, “Cosmetic use of a composition containing at least one oxazoline, serving as an active substance, as a slimming product and/or for preventing and/or treating cellulite” (Laboratoires Expanscience, priority 2003, dated 2009)

What was measured:
[1] = test system: normal human adipocytes; assay: Evaluation of lipid synthesis in adipocytes in suspension (Example 7): incorporation of radiolabelled acetate into lipids; type: cell-based; details: for decrease of the incorporation of acetate into lipids, % of the control: FIG. 2
Description: A solution of OX100 (10^−2 M in DMSO) was tested.
Culture Conditions: They are identical to those of example 6.
The adipocytes in suspension are incubated for 1 h at 37° C. in the presence of various concentrations of OX100 (10, 20 and 100 μMO). A volume of 10 ml of radiolabelled acetate (2-C^14, 60.87 μCi/ml, Amersham) is subsequently added to the preparation. After incubation for 4 h, the lipids are extracted according to the procedure described by Bligh and Dyer (methanol/chloroform/water), and evaporated under nitrogen, and the radioactivity incorporated is quantified by liquid scintillation (Rackbeta LKB 1210).

[2] = test system: normal human adipocytes; assay: Evaluation of lipid synthesis in adipocytes in suspension (Example 6): incorporation of radiolabelled acetate into lipids; type: cell-based; details: for decrease of the incorporation of acetate, % of the control: FIG. 1
Description: A solution of OX100, diluted to a concentration of 10^−2 M in DMSO, was tested.
Normal human adipocytes were isolated from abdominal biopsies (plastic surgery). Immediately after they have been received, the samples are incubated for 30 minutes at 37° C. in the presence of collagenase (supplied by the company Sigma). The adipocyte suspension is subsequently rinsed and diluted three times in the culture medium. The culture medium consists of: • 1.87 mg/ml bicarbonate (supplied by the company Life Technologies), • 25 IU/ml/25 μg/ml of penicillin/streptomycin (supplied by the company Life Technologies), • 2 mM of glutamine (supplied by the company Life Technologies), • 100% v/v of MEM (supplied by the company Merck Eurolab), and • 0.5% w/v of albumin of bovine origin (supplied by the company Sigma). Evaluation of Lipid Synthesis
The adipocytes in suspension are incubated for 1 hour at 37° C. in the presence of various concentrations of OX100. The OX100 concentrations tested are 20 μM, 4 μM and 0.8 μM.
A volume of 10 ml of radiolabelled acetate (2-C^14, 60.87 μCi/ml, supplied by the company Amersham) is subsequently added to the preparation.
After incubation for 4 hours, the lipids are extracted according to the procedure described by Bligh and Dyer, Can J Biochem Physiol, 37, 922, (1959), (methanol/chloroform/water), and evaporated under nitrogen, and the radioactivity incorporated is quantified by liquid scintillation (liquid scintillation device reference LKB 1210, supplied by the company Rackbeta).
The possible interaction between the radiolabelled acetate and the OX100 was evaluated in order to confirm the specificity of labeling, by incubating the highest concentration of OX100 (20 μM) with acetate alone.

[3] = tested at 10 μM, 1 h preincubation, 4 h with 2-C14 acetate

Row | SMILES | decrease of the incorporation of acetate into lipids, % of the control ([1]; OX100 at 10 μM) [%] | decrease of the incorporation of acetate into lipids, % of the control ([1]; OX100 at 20 μM) [%] | decrease of the incorporation of acetate into lipids, % of the control ([1]; OX100 at 100 μM) [%] | inhibitory activity on lipid synthesis (in words) ([1]; human adipocytes in culture) | inhibition of lipogenesis in human adipocytes (in words) [2] | decrease of the incorporation of acetate, % of the control ([2]; OX100 at 4 μM, 4 h with 2-C14 acetate) [%] | decrease of the incorporation of acetate, % of the control ([2]; OX100 at 20 μM, 4 h with 2-C14 acetate) [%] | inhibition of the incorporation of acetate (inhibition/control) [1, 3] [%] | inhibition of the incorporation of acetate (inhibition/control) [2, 3] [%]
1 | CCCCCCCCCCCC1=NC(C)(C)CO1 [OX100, 2-undecyl-4,4-dimethyl-1,3-oxazoline] | 35 | 38 | 39 | significant inhibitory activity | capable of inhibiting lipogenesis | 25 | 31 |  | 
2 | C/C=C/C/C=C/CCC(=O)[C@H]1O[C@H]1C(N)=O [ceruline, reference compound] |  |  |  |  |  |  |  | 75 | 95
